This is an account of results in patent US20260062443A1 (ALEXION PHARMACEUTICALS, INC., priority 2022, published 2026).

The target of this assay is T1, Human complement C1s enzyme (Homo sapiens, UniProt P09871).
T1 sequence (P09871 438-688 limits assumed): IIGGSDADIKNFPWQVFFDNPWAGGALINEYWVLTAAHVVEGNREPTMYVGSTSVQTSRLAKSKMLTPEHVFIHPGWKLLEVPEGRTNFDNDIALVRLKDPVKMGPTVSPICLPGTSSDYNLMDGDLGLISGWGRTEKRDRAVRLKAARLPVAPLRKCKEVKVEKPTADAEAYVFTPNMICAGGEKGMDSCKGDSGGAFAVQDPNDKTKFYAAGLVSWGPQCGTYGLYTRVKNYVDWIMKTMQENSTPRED
T1 sequence (P09871 16-437 partner limits assumed): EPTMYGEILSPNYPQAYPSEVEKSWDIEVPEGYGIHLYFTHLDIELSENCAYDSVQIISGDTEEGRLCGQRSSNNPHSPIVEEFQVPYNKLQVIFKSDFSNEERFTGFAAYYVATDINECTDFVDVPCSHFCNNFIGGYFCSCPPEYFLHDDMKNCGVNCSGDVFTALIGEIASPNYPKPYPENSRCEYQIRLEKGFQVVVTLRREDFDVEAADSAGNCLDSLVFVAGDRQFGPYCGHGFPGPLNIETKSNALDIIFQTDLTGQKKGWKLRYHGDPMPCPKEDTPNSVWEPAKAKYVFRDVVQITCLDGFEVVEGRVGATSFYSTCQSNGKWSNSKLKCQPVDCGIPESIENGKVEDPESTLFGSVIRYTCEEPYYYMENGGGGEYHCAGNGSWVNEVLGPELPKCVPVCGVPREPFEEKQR
In words: Human C1s enzyme assay. Type of assay: biochemical. Conditions: human complement C1s enzyme 1.16 nM, substrate Z-L-Lys-SBzl 100 μM, 5 min preincubation; read-out: IC50 (Stars), C1s Inhibiting Activity. In short, it runs like this:
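IC50 from nonlinear regression of reaction rates versus compound concentration, with rates taken from A405 recorded at 30 s intervals over 30 min after adding 100 μM Z-L-Lys-SBzl plus 100 μM DTNB. Enzyme was human C1s purified from serum, 1.16 nM, given 5 min compound preincubation at room temperature, pH 7.5 Tris/1 M NaCl.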

As usually defined, the IC50 is the midpoint of a concentration-inhibition curve. `C[C@@H](NC(=O)C1C[C@H](COCCCCCC(=O)O)CN1C(=O)CNC(=O)c1ccc2c(c1)Oc1ccccc1S2)c1cc2cnccc2[nH]1` (stereo partly drawn) [Compound 204, 6-(((3S)-5-(((R)-1-(1H-pyrrolo[3,2-c]pyridin-2-yl)ethyl)carbamoyl)-1-((phenoxathiine-3-carbonyl)glycyl)pyrrolidin-3-yl)methoxy)hexanoic acid]: the IC50 is less than 100 nM. With `Cc1cc(F)ccc1Oc1cccc(C(=O)NCC(=O)N2C[C@H](OC(F)F)C[C@H]2C(=O)NCc2cc3cnccc3[nH]2)c1` [Compound 274, (2S,4R)-N-((1H-pyrrolo[3,2-c]pyridin-2-yl)methyl)-4-(difluoromethoxy)-1-((3-(4-fluoro-2-methylphenoxy)benzoyl)glycyl) pyrrolidine-2-carboxamide] the figure was less than 100 nM.
